Test results as given in patent publication US9260486B2 (The University of Vermont and State Agricultural College, priority 2012, dated 2016).
Residues, ends and D or L forms follow the SMILES beside them.

How the values were obtained:
PKG Iα [1] = target: T1, PKG Iα (Bos taurus, UniProt P00516); assay: 32P-incorporation assay, activation of PKG Iα by SW peptides; assay type: biochemical
T1 construct: made in house
T1 sequence (P00516 1-671): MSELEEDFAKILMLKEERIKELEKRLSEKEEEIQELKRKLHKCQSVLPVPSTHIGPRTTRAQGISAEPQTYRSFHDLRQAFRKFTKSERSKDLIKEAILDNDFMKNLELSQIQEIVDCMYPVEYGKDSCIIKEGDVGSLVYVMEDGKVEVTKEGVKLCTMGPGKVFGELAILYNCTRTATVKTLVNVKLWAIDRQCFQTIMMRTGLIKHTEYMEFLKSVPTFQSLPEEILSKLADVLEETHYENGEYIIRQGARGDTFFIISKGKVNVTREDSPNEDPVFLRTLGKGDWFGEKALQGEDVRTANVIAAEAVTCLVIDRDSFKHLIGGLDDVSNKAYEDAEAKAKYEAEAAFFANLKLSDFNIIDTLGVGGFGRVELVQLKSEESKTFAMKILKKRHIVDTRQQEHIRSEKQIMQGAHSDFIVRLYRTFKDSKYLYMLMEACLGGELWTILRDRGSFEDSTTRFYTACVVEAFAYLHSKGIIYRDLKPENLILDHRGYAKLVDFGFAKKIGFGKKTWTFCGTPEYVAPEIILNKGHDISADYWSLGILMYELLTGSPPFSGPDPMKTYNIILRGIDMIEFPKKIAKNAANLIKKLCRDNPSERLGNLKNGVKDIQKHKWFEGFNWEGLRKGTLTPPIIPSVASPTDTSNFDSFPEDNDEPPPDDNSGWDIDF
Description: Starting with the 29-mer peptide (329-358), covering the full length of the switch helix, an array of peptide derivatives were synthesized to study the contributions from different segments of the SW helix peptide towards the functional phenotype of PKG Iα. Circular dichroism spectroscopy confirmed that the 29-mer SW peptide adopted a helical secondary structure. […] The activity of this short peptide is surprising. To activate the kinase, this non-helical 8-mer peptide first has to adopt the active helical conformation to activate PKG. However, this finding provides critical support in favor that the confined knob/nest interaction site may serve as a novel target site for non-cyclic nucleotide driven activation of PKG.
The isolation of the SW independent from the kinase allows us to discretely probe the nest in future studies using native and non-native amino acids. Moreover, the use of the SW: 329-358 allows us to answer more fundamental questions about the nature of the regulatory and catalytic domains and the communication between the B-site and the nest. […] The structure of this inhibitor contains a β-phenyl-1,N^2-etheno group attached to the pyrimidine ring. We hypothesized previously, based upon structural observations, that the presence of this phenyl group in the syn orientation effectively blocks PBC closure and reduces the potency of the SW:329-358 in a dose-dependent manner.
Determination of activation constants was performed using a [γ-^32P]-ATP transfer assay as previously reported (Ruth et al., 1991; Tegge et al., 1995). […] Aliquots, spotted on P81 Whatman paper were subjected to scintillation counting. All experiments were performed in the presence of the PKA-specific inhibitor, PKI^5-24 (70 nM) to suppress endogenous PKA activity.

PKG Iα [2] = target: T1, PKG Iα; details: Butt et al., 1995; cited from earlier work
KCa1.1 channels = assay: Inside-out patch clamp, open probability of single KCa1.1 channels in membrane patches from VSM cells reconstituted with recombinant PKG; assay type: cell-based; details: rat posterior cerebral artery VSM cells, with PKG Iα and ATP
Description: FIG. 4: SW:329-358 activates single KCa channels in inside-out membrane patches excised from cerebral artery myocytes.
Once we had supporting evidence that molecules carrying the knob-type ligand conformation were capable of activating PKG we set out to determine if this novel mechanism of kinase activation was functionally relevant. The high conductance calcium-activated potassium channel KCa1.1 is a well-established intracellular target of […] in vascular smooth muscle (VSM) cells. Using inside-out patch clamp configurations from freshly dissociated VSM cells from rat posterior cerebral arteries, we measured the changes of open probability (NPO) of single KCa1.1 channels in response to PKG stimulation in membrane patches excised from freshly-dissociated vascular smooth muscle cells (FIG. 4).

## CC(C)C[C@H](NC(=O)[C@H](CC(N)=O)NC(=O)[C@H](C)NC(=O)[C@H](Cc1ccccc1)NC(=O)[C@H](Cc1ccccc1)NC(=O)[C@H](C)NC(=O)[C@H](C)N)C(=O)N[C@@H](CCCCN)C(=O)O [SW:348-355] (H-AAFFANLK-OH; N-terminus and C-terminus assumed)
PKG Iα [1]; read-out: activation relative to activation associated with cGMP, 8-mer knob peptide
  Emax: 30%

## SW:329-349: SW-peptide derivative with additional removal of the knob residues (DVSNKAYEDAEAKAKYEAEAA)
PKG Iα [1]; under cGMP priming conditions
  activation of PKG Iα: completely inactive

## O=c1c2nc(Br)n([C@@H]3O[C@@H]4CO[P@@](O)(=S)O[C@H]4[C@H]3O)c2nc2[nH]c(-c3ccccc3)cn12 [Rp-PET, (RP)-8-Br-PET-cGMPS]
PKG Iα [2]
  affinity for PKG Iα regulatory domain binding sites relative to cGMP: higher affinity for the PHG Iα regulatory domain binding sites than cGMP
PKG Iα [1]; Rp-PET titrated into activation reactions
  effect of Rp-PET on activation constant of PKG Iα by SW:329-358: linear response of the activation constant to the amount of Rp-PET titrated

## Nc1nc2c(ncn2[C@@H]2O[C@@H]3COP(=O)(O)O[C@H]3[C@H]2O)c(=O)[nH]1 [cGMP]
KCa1.1 channels
  KCa1.1 channel open probability (NPO): significantly increased
